Source: patent publication US9872833B2, “Liposome composite body” (National University Corporation Tottori University, priority 2011, dated 2018)

Legend:
[1] = Measurement of singlet oxygen; format: physicochemical; settings: excitation wavelength 690 nm, 20 mW; singlet oxygen detected at 1,270 nm
Procedure: The measurement conditions are as follows.
Excitation was carried out with a dye laser using an excitation wavelength of 690 nm, an average output of 20 mW, a repetition frequency of 30 Hz, a pulse width of about […], and DCM.
For detection, light was dispersed by a spectroscope (focal distance: 250 mm, grating: 600 L/mm) using a gated near-infrared image intensifier (NIR-PII) cooled at −80° C., followed by measurement for 200 microseconds from 30 microseconds after excitation.
In FIG. 10, the red line indicates the generation of singlet oxygen (1,270 nm) derived from ICG-8, and the blue line indicates singlet oxygen scavenging by β-carotene (concentration: 4 μM).
(§1) The measurement conditions were as follows.
In FIG. 12, the red line indicates the generation of singlet oxygen (1,270 nm) derived from ICG-11, and the blue line indicates singlet oxygen scavenging by β-carotene (concentration: 6 μM).

[2] = Fluorescence spectrum of liposome dispersions; format: physicochemical; settings: liposome dispersion; excitation wavelength 736 nm
Procedure: (1) Fluorescence Spectrum
Dispersion of Liposome Including ICG (ICG
(§2) A chloroform/methanol (9:1, v/v) solution containing 10.0 mM of egg yolk-derived phosphatidylcholine and 3.2×10^−2 mM of ICG (Diagnogreen injection, Daiichi Sankyo) was prepared; 3 mL thereof was subjected to the distillation off of the solvent under reduced pressure; and 3 mL of a physiological saline was added to the formed thin membrane, which was then treated using a filter having a pore diameter of 0.22 μm to provide liposomes.
(§3) Dispersion of Liposome Having ICG-8 in Lipid Bilayer Membrane (LP-ICG-8)
as §2, with “ICG-8” for “ICG (Diagnogreen injection, Daiichi Sankyo)”
When the above liposome dispersions were measured for fluorescence spectra (Jasco FP-6600), fluorescence spectra as shown in FIG. 2 were obtained at an excitation wavelength of 736 nm. The maximum fluorescence wavelength for ICG was 852 nm, and the maximum fluorescence wavelength for ICG-8 was 854 nm.

[3] = tested on: cancer (glioma) under the skin using the brain tumor cells 9 L; experiment: Near-infrared camera image after intravenous administration (tumor accumulation); format: in vivo, rat; settings: 500 μL through the cervical vein; 5 minutes after administration; 9 L tumor-bearing rats
Procedure: (2) Near-Infrared Camera Image after Intravenous Administration
ICG Aqueous Solution (ICG)
ICG was dissolved to 3.2 mM in pure water and diluted by 100-fold with a physiological saline.
as §3
A chloroform/methanol (9:1, v/v) solution containing egg yolk-derived phosphatidylcholine (10.0 mM), cholesterol (1.0 mM), polyethylene glycol-modified phosphatidylethanolamine (PEG-PE) (5.0×10^−1 mM), and ICG-8 (3.2×10^−2 mM) was prepared; 5 mL thereof was evaporated under reduced pressure; 5 mL of a physiological saline was added to the formed thin membrane, which was then treated using a filter having a pore diameter of 0.22 μm; and the resultant was further treated using a filter having a pore diameter of 0.05 μm to provide liposomes.
F344/Jc1 34-36 weeks 9 L rats were used for the test. […] After cutting the hair over the tumor location, 500 μL of the ICG aqueous solution or LP-ICG-8 was administered through the cervical vein. Fluorescent observation (Hyper Eye Medical System from Mizuho Corporation, excitation wavelength: 760 to 780 nm, fluorescence wavelength: >780 nm) was carried out 5 minutes after administration (FIG. 3). The distance between each rat and the camera head was 50 cm.

[4] = Loading amount in liposome (gel filtration); format: physicochemical; settings: liposomes formed at ICG:DOPC of 1:40 or 1:20
Procedure: The amount of ICG-11 loadable in the liposome was examined by changing the mixing ratio between ICG-11 and dioleoylphosphatidylcholine (DOPC) as the main component of the lipid bilayer membrane. For comparison, the amount of loadable ICG was examined.
In chloroform/methanol (9:1, v/v) solution were dissolved DOPC (10 mM), cholesterol (5 mM), polyethylene glycol-modified phosphatidylethanolamine (PEG-PE, 0.5 mM), and ICG-11 (0 to 5 mM) or ICG (0 to 0.5 mM); a portion of the resultant solution was dried under reduced pressure; and a physiological saline was added to the formed thin membrane, which was then treated using a filter having a pore diameter of 100 nm to provide a liposome dispersion.
The amount of incorporation of ICG-11 into the lipid bilayer membrane when it formed a liposome was measured using the following conditions.
Liposomes into which ICG-11 or ICG was incorporated and ICG-11 or ICG released into a liposome dispersion without being incorporated into the lipid bilayer membrane were separated and determined using a gel filtration column (PD-10 from GE) (FIG. 14).

[5] = Fluorescence spectral characteristic of ICG-11 in polar and non-polar solvent; format: physicochemical; settings: 1 μM; for fluorescence emission: in chloroform as non-polar solvent
Procedure: (1) Fluorescence Spectral Characteristic of ICG-11
The physical properties of ICG-11 were examined in aqueous solutions different in polarity in comparison with ICG.
(a) Comparison in Methanol as Polar Solvent
(b) Comparison in Chloroform as Non-Polar Solvent
In FIG. 11, the black and red lines indicate the results for ICG-11 (concentration: 1 μM) and ICG (concentration: 1 μM), respectively.

[6] = Heat generating capacity of ICG-11; format: physicochemical; settings: excitation 808 nm, 0.5 W/m^2; ICG-11 0 to 4 μM
Procedure: (3) Heat Generating Capacity of ICG-11
The heat generating capacity of […] was measured using the following conditions.
as §1
Excitation was carried out at an excitation wavelength of 808 nm and an output of 0.5 W/m^2. The temperature was measured at 1-second intervals.
In FIG. 13, the black, red, blue, and green lines indicate the results when the concentration of ICG-11 was 0 μM, 1 μM, 2 μM, and 4 μM, respectively.

maximum fluorescence wavelength [2]	fluorescence emission [5]	fluorescence compared to ICG ([5]; in methanol as polar solvent)	Compound	singlet oxygen-producing capacity [1]	accumulation in the tumor tissue (fluorescent observation) [3]	dye not incorporated into the lipid bilayer membrane [4]	heat generating capacity [6]
854 nm			4-(2-((1E,3E,5E,7E)-7-(1,1-dimethyl-3-octadecyl-1H-benzo[e]indol-2(3H)-ylidene)hepta-1,3,5-trienyl)-1,1-dimethyl-1H-benzo[e]indolium-3-yl)butane-1-sulfonic acid [ICG-8]	had a singlet oxygen-producing capacity			
852 nm	not emitting fluorescence		CC1(C)C(/C=C/C=C/C=C/C=C2\N(CCCCS(=O)(=O)O)c3ccc4ccccc4c3C2(C)C)=[N+](CCCCS(=O)(=O)[O-])c2ccc3ccccc3c21 [ICG, indocyanine green, reference compound]		did not result in the accumulation of ICG in the tumor tissue	ICG not incorporated into the lipid bilayer membrane increased in the dispersion	
	sufficiently strong fluorescence	1.5 fold	CCCCCCCC/C=C\CCCCCCCC(=O)OC[C@H](COP(=O)(O)OCCNC(=O)CCN1/C(=C/C=C/C=C/C=C/C2=[N+](CCCCS(=O)(=O)O)c3ccc4ccccc4c3C2(C)C)C(C)(C)c2c1ccc1ccccc21)OC(=O)CCCCCCC/C=C\CCCCCCCC [ICG-11, 4-(2-((1E,3E,5E,7E)-7-(3-(2-(1,2-dioleoyl-sn-glycero-3-phosphoethanolaminocarbonyl)ethyl)-1,1-dimethyl-1H-benzo[e]indol-2(3H)-ylidene)hepta-1,3,5-trienyl)-1,1-dimethyl-1H-benzo[e]indolium-3-yl)butane-1-sulfonic acid]	had a singlet oxygen-producing capacity			had a heat-generating capacity (increasing the tissue temperature from 37 °C to 43° C.)
